What was measured:
Japanese bulrush [1] = test: Test Example 1: herbicidal activity, application before weed generation under submerged conditions (Table 16, symbol B); type: in vivo, Japanese bulrush (Schoenoplectus juncoides); conditions: 320 g/ha applied herbicide
Method in brief: (§1)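 Emulsion formulation, water-diluted to set dose, was put onto the flooded surface (4 cm depth, alluvial soil) the same day weeds were sown and 2.5-leaf rice transplanted. After 3 weeks at 25-30 °C under glass, each species was rated 0 (≤5% kill) to 5 (≥90% kill).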

oval-leafed pondweed [2] = test: Test Example 1: herbicidal activity, application before weed generation under submerged conditions (Table 16, symbol C); type: in vivo, oval-leafed pondweed (Monochoria vaginalis); conditions: 320 g/ha applied herbicide
Method in brief: as §1

Japanese bulrush [3] = test: Test Example 2: herbicidal activity, application during weed generation under submerged conditions (Table 17, symbol B); type: in vivo, Japanese bulrush (Schoenoplectus juncoides); conditions: AAH 320 g/ha; application during weed generation, submerged conditions
Method in brief: (§2)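 Alluvial soil in Wagner pots was flooded to 4 cm depth and sown with the three weeds together; pots were kept in a greenhouse at 25° C. to 30° C. At the one to two leaf stage, an emulsion formulation diluted in water to a set rate went onto the water surface; scored three weeks later.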

oval-leafed pondweed [4] = test: Test Example 2: herbicidal activity, application during weed generation under submerged conditions (Table 17, symbol C); type: in vivo, oval-leafed pondweed (Monochoria vaginalis); conditions: AAH 320 g/ha; application during weed generation, submerged conditions
Method in brief: as §2

barnyard grass [5] = test: Test Example 3: herbicidal effect by foliage application, Wagner pot (Table 18, symbol H); type: in vivo, barnyard grass (Echinochloa crus-galli); conditions: 320 g/ha
Method in brief: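 Plants were sown in alluvial soil held under 0.1–0.5 cm standing water and grown 14 days in a greenhouse at 25–30 °C. An emulsifiable formulation, water-diluted to the set dose, was then sprayed onto the foliage, and effects were scored three weeks later using previously defined criteria.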

green foxtail [6] = test: Test Example 4: herbicidal effect by soil treatment (Table 19, symbol G); type: in vivo, green foxtail (Setaria viridis); conditions: for G: green foxtail, herbicidal effect rating: AAH 320 g/ha; for herbicidal effect rating, G: green foxtail: 320 g/ha
Method in brief: (§3)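 In this soil treatment, the formulated compound reached the seeds only through the soil: seeds were buried about 1.5 cm deep in sterilized diluvial soil, then the diluted emulsion was sprayed over the surface. After three weeks at 25° C. to 30° C. in a greenhouse, effects were graded on criteria from an earlier test.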

barnyard grass [7] = test: Test Example 4: herbicidal effect by soil treatment (Table 19, symbol H); type: in vivo, barnyard grass (Echinochloa crus-galli); conditions: for H: barnyard grass, herbicidal effect rating: AAH 320 g/ha; for herbicidal effect rating, H: barnyard grass: 320 g/ha
Method in brief: as §3

blackgrass [8] = test: Test Example 4: herbicidal effect by soil treatment (Table 19, symbol J); type: in vivo, blackgrass (Alopecurus myosuroides); conditions: for J: blackgrass, herbicidal effect rating: AAH 320 g/ha; for herbicidal effect rating, J: blackgrass: 320 g/ha
Method in brief: as §3

velvetleaf [9] = test: Test Example 4: herbicidal effect by soil treatment (Table 19, symbol M); type: in vivo, velvetleaf (Abutilon theophrasti); conditions: for M: velvetleaf, herbicidal effect rating: AAH 320 g/ha; for herbicidal effect rating, M: velvetleaf: 320 g/ha
Method in brief: as §3

redroot pigweed = test: Test Example 4: herbicidal effect by soil treatment (Table 19, symbol N); type: in vivo, redroot pigweed (Amaranthus retroflexus); conditions: for N: redroot pigweed, herbicidal effect rating: AAH 320 g/ha; for herbicidal effect rating, N: redroot pigweed: 320 g/ha
Method in brief: as §3

persian speedwell [10] = test: Test Example 4: herbicidal effect by soil treatment (Table 19, symbol R); type: in vivo, Persian speedwell (Veronica persica); conditions: for R: persian speedwell, herbicidal effect rating: AAH 320 g/ha; for herbicidal effect rating, R: persian speedwell: 320 g/ha
Method in brief: as §3

southern crabgrass = test: Test Example 5: herbicidal effect by foliage application, plastic box (Table 20, symbol F); type: in vivo, southern crabgrass (Digitaria ciliaris); conditions: foliage application, 320 g/ha, 3 weeks after application
Method in brief: (§4)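 Plants were sown into sterilized diluvial soil under about 1.5 cm cover and kept in a greenhouse at 25° C. to 30° C. Fourteen days on, foliage received an even spray of the diluted emulsion. Herbicidal or crop effect was judged three weeks afterwards.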

green foxtail [11] = test: Test Example 5: herbicidal effect by foliage application, plastic box (Table 20, symbol G); type: in vivo, green foxtail (Setaria viridis); conditions: foliage application, 320 g/ha, 3 weeks after application
Method in brief: as §4

blackgrass [12] = test: Test Example 5: herbicidal effect by foliage application, plastic box (Table 20, symbol J); type: in vivo, blackgrass (Alopecurus myosuroides); conditions: foliage application, 320 g/ha, 3 weeks after application
Method in brief: as §4

windgrass = test: Test Example 5: herbicidal effect by foliage application, plastic box (Table 20, symbol L); type: in vivo, windgrass (Apera spica-venti); conditions: foliage application, 320 g/ha, 3 weeks after application
Method in brief: as §4

velvetleaf [13] = test: Test Example 5: herbicidal effect by foliage application, plastic box (Table 20, symbol M); type: in vivo, velvetleaf (Abutilon theophrasti); conditions: foliage application, 320 g/ha, 3 weeks after application
Method in brief: as §4

persian speedwell [14] = test: Test Example 5: herbicidal effect by foliage application, plastic box (Table 20, symbol R); type: in vivo, Persian speedwell (Veronica persica); conditions: foliage application, 320 g/ha, 3 weeks after application
Method in brief: as §4

SMILES	Herbicidal effect on B: Japanese bulrush (grade 0-5) (Japanese bulrush [1])	Herbicidal effect on C: oval-leafed pondweed (grade 0-5) (oval-leafed pondweed [2])	herbicidal effect rating, B: Japanese bulrush (Japanese bulrush [3])	herbicidal effect rating, C: oval-leafed pondweed (oval-leafed pondweed [4])	herbicidal effect on H (barnyard grass), rating 0-5 (barnyard grass [5])	G: green foxtail, herbicidal effect rating (green foxtail [6])	H: barnyard grass, herbicidal effect rating (barnyard grass [7])	J: blackgrass, herbicidal effect rating (blackgrass [8])	M: velvetleaf, herbicidal effect rating (velvetleaf [9])	N: redroot pigweed, herbicidal effect rating (redroot pigweed)	R: persian speedwell, herbicidal effect rating (persian speedwell [10])	effect on southern crabgrass (F) (southern crabgrass)	effect on green foxtail (G) (green foxtail [11])	effect on blackgrass (J) (blackgrass [12])	effect on windgrass (L) (windgrass)	effect on velvetleaf (M) (velvetleaf [13])	effect on persian speedwell (R) (persian speedwell [14])	herbicidal effect rating, G: green foxtail (green foxtail [6])	herbicidal effect rating, H: barnyard grass (barnyard grass [7])	herbicidal effect rating, J: blackgrass (blackgrass [8])	other results
COCCOCOc1c(C)nn(C)c(=O)c1-c1c(-c2ccc(OCCSC)cc2)sc2ccccc12 [1-221]	3 (Herbicidal rate of 40% or more and less than 70%)	3 (Herbicidal rate of 40% or more and less than 70%)	3 (Herbicidal rate of 40% or more and less than 70%)	3 (Herbicidal rate of 40% or more and less than 70%)	5 (Herbicidal rate of 90% or more (almost completely withered))	5 (Herbicidal rate of 90% or more (almost completely withered))	3 (Herbicidal rate of 40% or more and less than 70%)	0 (Herbicidal rate of 5% or less (almost no effect))	2 (Herbicidal rate of 20% or more and less than 40%)	5 (Herbicidal rate of 90% or more (almost completely withered))	5 (Herbicidal rate of 90% or more (almost completely withered))	5 (Herbicidal rate of 90% or more (almost completely withered))	5 (Herbicidal rate of 90% or more (almost completely withered))	5 (Herbicidal rate of 90% or more (almost completely withered))	5 (Herbicidal rate of 90% or more (almost completely withered))	5 (Herbicidal rate of 90% or more (almost completely withered))	5 (Herbicidal rate of 90% or more (almost completely withered))	–	–	–	–
C#CCSCc1ccc(-c2sc3ccccc3c2-c2c(O)c(C)nn(C)c2=O)cc1 [1-247]	2 (Herbicidal rate of 20% or more and less than 40%)	0 (Herbicidal rate of 5% or less (almost no effect))	0 (Herbicidal rate of 5% or less (almost no effect))	0 (Herbicidal rate of 5% or less (almost no effect))	5 (Herbicidal rate of 90% or more (almost completely withered))	0 (Herbicidal rate of 5% or less (almost no effect))	0 (Herbicidal rate of 5% or less (almost no effect))	0 (Herbicidal rate of 5% or less (almost no effect))	0 (Herbicidal rate of 5% or less (almost no effect))	3 (Herbicidal rate of 40% or more and less than 70%)	4 (Herbicidal rate of 70% or more and less than 90%)	2 (Herbicidal rate of 20% or more and less than 40%)	4 (Herbicidal rate of 70% or more and less than 90%)	0 (Herbicidal rate of 5% or less (almost no effect))	0 (Herbicidal rate of 5% or less (almost no effect))	5 (Herbicidal rate of 90% or more (almost completely withered))	5 (Herbicidal rate of 90% or more (almost completely withered))	–	–	–	–
Cc1nn(C)c(=O)c(-c2c(-c3ccc(F)cc3)sc3ccc(F)cc23)c1O [2-001]	3 (Herbicidal rate of 40% or more and less than 70%)	1 (Herbicidal rate of 5% or more and less than 20%)	2 (Herbicidal rate of 20% or more and less than 40%)	3 (Herbicidal rate of 40% or more and less than 70%)	5 (Herbicidal rate of 90% or more (almost completely withered))	4 (Herbicidal rate of 70% or more and less than 90%)	3 (Herbicidal rate of 40% or more and less than 70%)	2 (Herbicidal rate of 20% or more and less than 40%)	5 (Herbicidal rate of 90% or more (almost completely withered))	5 (Herbicidal rate of 90% or more (almost completely withered))	5 (Herbicidal rate of 90% or more (almost completely withered))	5 (Herbicidal rate of 90% or more (almost completely withered))	5 (Herbicidal rate of 90% or more (almost completely withered))	4 (Herbicidal rate of 70% or more and less than 90%)	4 (Herbicidal rate of 70% or more and less than 90%)	5 (Herbicidal rate of 90% or more (almost completely withered))	5 (Herbicidal rate of 90% or more (almost completely withered))	–	–	–	–
CCCC(=O)Oc1c(C)nn(C)c(=O)c1-c1c(-c2ccc(Cl)cc2)sc2ccc(F)cc12 [2-011]	3 (Herbicidal rate of 40% or more and less than 70%)	3 (Herbicidal rate of 40% or more and less than 70%)	3 (Herbicidal rate of 40% or more and less than 70%)	3 (Herbicidal rate of 40% or more and less than 70%)	5 (Herbicidal rate of 90% or more (almost completely withered))	–	–	–	–	–	–	4 (Herbicidal rate of 70% or more and less than 90%)	5 (Herbicidal rate of 90% or more (almost completely withered))	2 (Herbicidal rate of 20% or more and less than 40%)	3 (Herbicidal rate of 40% or more and less than 70%)	5 (Herbicidal rate of 90% or more (almost completely withered))	5 (Herbicidal rate of 90% or more (almost completely withered))	2 (Herbicidal rate of 20% or more and less than 40%)	3 (Herbicidal rate of 40% or more and less than 70%)	0 (Herbicidal rate of 5% or less (almost no effect))	herbicidal effect rating, M: velvetleaf (velvetleaf [9]): 3 (Herbicidal rate of 40% or more and less than 70%); herbicidal effect rating, N: redroot pigweed (redroot pigweed): 4 (Herbicidal rate of 70% or more and less than 90%); herbicidal effect rating, R: persian speedwell (persian speedwell [10]): 4 (Herbicidal rate of 70% or more and less than 90%)
CCCC(=O)Oc1c(C)nn(C)c(=O)c1-c1c(-c2ccc(CC)cc2)sc2ccc(F)cc12 [2-016]	3 (Herbicidal rate of 40% or more and less than 70%)	5 (Herbicidal rate of 90% or more (almost completely withered))	4 (Herbicidal rate of 70% or more and less than 90%)	4 (Herbicidal rate of 70% or more and less than 90%)	5 (Herbicidal rate of 90% or more (almost completely withered))	–	–	–	–	–	–	0 (Herbicidal rate of 5% or less (almost no effect))	0 (Herbicidal rate of 5% or less (almost no effect))	1 (Herbicidal rate of 5% or more and less than 20%)	5 (Herbicidal rate of 90% or more (almost completely withered))	5 (Herbicidal rate of 90% or more (almost completely withered))	5 (Herbicidal rate of 90% or more (almost completely withered))	0 (Herbicidal rate of 5% or less (almost no effect))	1 (Herbicidal rate of 5% or more and less than 20%)	2 (Herbicidal rate of 20% or more and less than 40%)	herbicidal effect rating, M: velvetleaf (velvetleaf [9]): 3 (Herbicidal rate of 40% or more and less than 70%); herbicidal effect rating, N: redroot pigweed (redroot pigweed): 5 (Herbicidal rate of 90% or more (almost completely withered)); herbicidal effect rating, R: persian speedwell (persian speedwell [10]): 4 (Herbicidal rate of 70% or more and less than 90%)

— patent US20230085307A1, “PYRIDAZINONE COMPOUND AND HERBICIDE” (NISSAN CHEMICAL CORPORATION, priority 2019, published 2023)
